From patent US8940896B2, “Tetra-cyclic carboline derivatives useful in the inhibition of angiogenesis” (PTC Therapeutics, Inc., priority 2004, dated 2015)

Test system: VEGF
Assay: Hypoxia-inducible endogenous VEGF expression, VEGF ELISA assay
Type: cell-based
Details: Homo sapiens, HeLa, HeLa cells, hypoxic conditions (1% O2, 5% CO2), VEGF in conditioned media
Outline: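 HeLa cells cultured 24-48 h under hypoxia (1% O2) with or without compound; VEGF in conditioned medium quantified by ELISA against a standard curve. EC50 from dose-response percent inhibition, with parallel CellTiter-Glo CC50 under identical conditions.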

Compound	EC50 [nM]
COCCOc1ccc(C2c3[nH]c4ccc(Cl)cc4c3CC3C(=O)N(C)C(=S)N32)cc1 (stereo not drawn) [Compound 107]	< 8
COc1ccc(C2c3[nH]c4ccccc4c3CC3C(=O)N(C(C)(C)C)C(=S)N32)cc1 (stereo not drawn) [Compound 70]	> 1000
O=C1C2Cc3c([nH]c4ccc(Br)cc34)C(C3CCCCC3)N2C(=S)N1C1CC1 (stereo not drawn) [Compound 15]	200 to 1000
COCCOc1ccc(C2c3[nH]c4ccc(Cl)cc4c3CC3C(=O)N(C4CCCC4)C(=S)N32)cc1 (stereo not drawn) [Compound 109]	8 to 40
Cc1ccc(N2C(=O)C3Cc4c([nH]c5ccc(Br)cc45)C(c4ccc(C(C)C)cc4)N3C2=S)cc1 (stereo not drawn) [Compound 96]	< 8
COc1ccc(C2c3[nH]c4ccccc4c3CC3C(=O)N(C4CCCCC4)C(=O)N32)cc1 (stereo not drawn) [Compound 48]	> 1000
CC(C)N1C(=O)C2Cc3c([nH]c4ccc(Br)cc34)C(c3ccc(N4CCOCC4)cc3)N2C1=S (stereo not drawn) [Compound 127]	< 8
CN1C(=O)C2Cc3c([nH]c4ccccc34)C(c3cccc(Cl)c3)N2C1=S (stereo not drawn) [Compound 58]	> 1000

Continued, values first:

EC50 [nM]	Compound
40 to 200	COc1ccc(C2c3[nH]c4ccc(Br)cc4c3CC3C(=O)N(c4ccccc4C(C)C)C(=S)N32)cc1 (stereo not drawn) [Compound 183]
< 8	COc1ccc(C2c3[nH]c4ccc(Br)cc4c3CC3C(=O)N(c4cccc(C#N)c4)C(=S)N32)cc1 (stereo not drawn) [Compound 146]
< 8	COCCN(C)CCCOc1ccc(C2c3[nH]c4ccc(Br)cc4c3CC3C(=O)N(C(C)C)C(=S)N32)cc1 (stereo not drawn) [Compound 158]
< 8	CC(C)N1C(=O)C2Cc3c([nH]c4ccc(Br)cc34)C(c3ccc(OCCCN4CCN(C)CC4)cc3)N2C1=S (stereo not drawn) [Compound 159]
